The values below come from ChEMBL document CHEMBL4145442, “Novel LCK/FMS inhibitors based on phenoxypyrimidine scaffold as potential treatment for inflammatory disorders” (Eur J Med Chem, 2017).

The source made the active and inactive calls. No cut-off for these calls is given here.

Series [1] concerns the target Homeodomain-interacting protein kinase 1 (Homo sapiens, UniProt Q86Z02). Nature of the series: Inhibition of HIPK1 (unknown origin).
In series [2] the target is T1, Tyrosine-protein kinase Lck (Homo sapiens, UniProt P06239). Nature of the series: Inhibition of LCK (unknown origin) after 120 mins in presence of 33P-ATP.
Target sequence in this assay (P06239 whole entry): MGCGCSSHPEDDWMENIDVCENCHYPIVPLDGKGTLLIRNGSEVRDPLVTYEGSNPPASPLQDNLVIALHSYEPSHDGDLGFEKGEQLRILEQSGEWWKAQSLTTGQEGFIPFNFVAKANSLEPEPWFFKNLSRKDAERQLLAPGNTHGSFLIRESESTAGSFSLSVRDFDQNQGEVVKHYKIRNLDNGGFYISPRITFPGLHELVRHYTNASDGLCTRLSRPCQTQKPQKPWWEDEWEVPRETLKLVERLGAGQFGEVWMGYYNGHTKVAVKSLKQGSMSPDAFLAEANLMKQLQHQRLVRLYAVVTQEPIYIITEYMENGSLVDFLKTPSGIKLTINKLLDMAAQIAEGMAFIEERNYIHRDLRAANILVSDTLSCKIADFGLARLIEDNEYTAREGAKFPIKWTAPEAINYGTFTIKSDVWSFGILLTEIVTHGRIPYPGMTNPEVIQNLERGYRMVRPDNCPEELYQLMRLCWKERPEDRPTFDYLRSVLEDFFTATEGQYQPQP
The test system of series [3] is RAW264.7. Kind of series: (§1) Cytotoxicity against mouse RAW264.7 cells after 4 hrs by MTT assay. Type of series: cell-based. To be noted: Mus musculus, RAW264.7, 4 h. Background: Formazan colour is commonly taken as a measure of viable cells.
The test system of series [4] is RAW264.7. Kind of series: Inhibition of LPS-induced NO production in mouse RAW264.7 cells after 24 hrs by Griess assay. The series is classed as functional, cell-based. To be noted: RAW264.7, 24 h.
The target in series [5] is Tyrosine-protein kinase Lyn (Homo sapiens, UniProt P07948).
Description: Inhibition of LYN (unknown origin)
Series [6] addresses High affinity nerve growth factor receptor (Homo sapiens, UniProt P04629).
Description: Inhibition of TRKA (unknown origin)
Series [7] addresses T1, Tyrosine-protein kinase Lck. Nature of the series: Inhibition of LCK (unknown origin) assessed as remaining activity at 3 x 10^-5 M after 120 mins in presence of 33P-ATP (reference value: […]% to […]%). To be noted: at 30 µM.
Target sequence in this assay (P06239 2-509 limits assumed): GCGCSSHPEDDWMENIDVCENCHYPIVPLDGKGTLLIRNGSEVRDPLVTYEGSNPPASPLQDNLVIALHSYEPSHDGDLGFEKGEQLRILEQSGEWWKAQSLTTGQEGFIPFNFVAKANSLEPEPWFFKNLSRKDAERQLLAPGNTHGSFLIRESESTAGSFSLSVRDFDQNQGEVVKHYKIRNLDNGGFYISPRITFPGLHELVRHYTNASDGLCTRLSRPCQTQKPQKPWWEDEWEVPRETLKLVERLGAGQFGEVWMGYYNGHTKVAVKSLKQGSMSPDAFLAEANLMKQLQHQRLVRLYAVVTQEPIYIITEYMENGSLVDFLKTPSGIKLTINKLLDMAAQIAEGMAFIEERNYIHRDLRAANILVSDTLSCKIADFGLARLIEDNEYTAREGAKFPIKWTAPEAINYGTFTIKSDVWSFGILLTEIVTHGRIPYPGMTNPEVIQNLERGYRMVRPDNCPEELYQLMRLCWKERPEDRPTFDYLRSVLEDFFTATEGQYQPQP
The target in series [8] is Macrophage colony-stimulating factor 1 receptor (Homo sapiens, UniProt P07333). Nature of the series: Inhibition of FMS (unknown origin) after 120 mins in presence of 33P-ATP.
Series [9] deals with T1, Tyrosine-protein kinase Lck. Nature of the series: Inhibition of LCK (unknown origin) assessed as remaining activity at 1 x 10^-5 M after 120 mins in presence of 33P-ATP (reference value: […]% to […]%). To be noted: at 10 µM.
Target sequence in this assay (P06239 2-509 limits assumed): as above
For series [10] the target is unchanged. Nature of the series: Inhibition of LCK (unknown origin) assessed as remaining activity at 3.33 x 10^-6 M after 120 mins in presence of 33P-ATP (reference value: […]% to […]%). To be noted: at 3.33 µM.
Target sequence in this assay (P06239 2-509 limits assumed): as above
Series [11] shares this target. Nature of the series: Inhibition of LCK (unknown origin) assessed as remaining activity at […] x 10^-6 M after 120 mins in presence of 33P-ATP (reference value: […]% to […]%).
Target sequence in this assay (P06239 2-509 limits assumed): as above
Series [12] shares this target. Kind of series: Inhibition of LCK (unknown origin) assessed as remaining activity at 3.7 x 10^-7 M after 120 mins in presence of 33P-ATP (reference value: […]% to […]%). To be noted: at 0.37 µM.
Target sequence in this assay (P06239 2-509 limits assumed): as above
A short description of series [13]: as §1. Type of series: cell-based. To be noted: mouse, RAW264.7 cells.
The test system of series [14] is RAW264.7. Nature of the series: Potency index, ratio of L-NIL IC50 to compound IC50 for inhibition of LPS-induced NO production in mouse RAW264.7 cells. The series is classed as functional.
In series [15] the test system is RAW264.7. Kind of series: Antiinflammatory activity in mouse RAW264.7 cells assessed as inhibition of LPS-induced PGE2 production after 24 hrs by enzyme immunoassay. The series is classed as functional, cell-based. To be noted: RAW264.7, 24 h.
Series [16] relates to RAW264.7. Nature of the series: Antiinflammatory activity against mouse RAW264.7 cells assessed as inhibition of LPS induced COX-2 protein expression at 3 to 12 uM after 24 hrs by Western blot analysis. Type of series: functional, cell-based.
The subject of series [17] is RAW264.7. Kind of series: Antiinflammatory activity against mouse RAW264.7 cells assessed as inhibition of LPS-induced iNOS protein expression at 3 to 12 uM after 24 hrs by Western blot analysis. The series is classed as functional, cell-based.

Chain of Macrophage colony-stimulating factor 1 receptor (P07333 whole entry): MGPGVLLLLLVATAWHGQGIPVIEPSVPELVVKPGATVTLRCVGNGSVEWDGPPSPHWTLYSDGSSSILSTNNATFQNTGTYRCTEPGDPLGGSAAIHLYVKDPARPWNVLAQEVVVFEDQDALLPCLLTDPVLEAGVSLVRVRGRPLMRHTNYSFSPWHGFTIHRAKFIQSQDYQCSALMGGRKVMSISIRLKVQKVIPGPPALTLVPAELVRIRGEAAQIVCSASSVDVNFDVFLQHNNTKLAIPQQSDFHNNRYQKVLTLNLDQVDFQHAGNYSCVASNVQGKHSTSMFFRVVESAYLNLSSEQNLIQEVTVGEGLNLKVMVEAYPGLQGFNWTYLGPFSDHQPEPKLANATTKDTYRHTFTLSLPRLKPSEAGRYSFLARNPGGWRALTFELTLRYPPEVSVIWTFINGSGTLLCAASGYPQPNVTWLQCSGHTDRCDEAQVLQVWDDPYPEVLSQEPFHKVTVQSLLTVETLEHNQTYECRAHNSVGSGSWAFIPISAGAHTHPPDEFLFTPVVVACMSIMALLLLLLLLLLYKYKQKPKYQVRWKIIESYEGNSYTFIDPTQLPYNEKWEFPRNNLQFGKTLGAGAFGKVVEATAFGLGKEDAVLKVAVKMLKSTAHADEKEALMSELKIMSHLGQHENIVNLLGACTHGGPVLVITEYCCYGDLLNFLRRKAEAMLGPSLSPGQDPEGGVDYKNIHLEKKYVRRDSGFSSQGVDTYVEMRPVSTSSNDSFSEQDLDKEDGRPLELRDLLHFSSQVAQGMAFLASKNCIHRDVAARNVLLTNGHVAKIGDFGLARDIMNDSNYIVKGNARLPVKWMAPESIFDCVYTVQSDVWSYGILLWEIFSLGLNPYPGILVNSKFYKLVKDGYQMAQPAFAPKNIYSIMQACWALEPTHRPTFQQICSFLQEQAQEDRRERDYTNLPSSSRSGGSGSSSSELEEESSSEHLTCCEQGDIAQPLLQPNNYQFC
Chain of Tyrosine-protein kinase Lyn (P07948 whole entry): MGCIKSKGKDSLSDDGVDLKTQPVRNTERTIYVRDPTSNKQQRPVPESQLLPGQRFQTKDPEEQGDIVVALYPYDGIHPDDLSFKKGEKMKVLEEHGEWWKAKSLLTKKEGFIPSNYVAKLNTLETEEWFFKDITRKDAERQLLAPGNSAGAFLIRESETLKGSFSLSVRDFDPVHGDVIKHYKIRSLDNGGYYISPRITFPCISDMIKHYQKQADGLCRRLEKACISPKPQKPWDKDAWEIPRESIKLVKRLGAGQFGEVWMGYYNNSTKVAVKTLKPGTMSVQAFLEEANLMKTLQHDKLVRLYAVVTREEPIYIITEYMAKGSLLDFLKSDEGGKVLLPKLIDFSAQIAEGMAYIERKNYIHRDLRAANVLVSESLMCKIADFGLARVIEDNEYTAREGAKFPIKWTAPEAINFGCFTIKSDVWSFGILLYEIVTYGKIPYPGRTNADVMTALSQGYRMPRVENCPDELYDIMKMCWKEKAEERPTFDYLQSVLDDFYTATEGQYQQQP
Chain of High affinity nerve growth factor receptor (P04629 whole entry): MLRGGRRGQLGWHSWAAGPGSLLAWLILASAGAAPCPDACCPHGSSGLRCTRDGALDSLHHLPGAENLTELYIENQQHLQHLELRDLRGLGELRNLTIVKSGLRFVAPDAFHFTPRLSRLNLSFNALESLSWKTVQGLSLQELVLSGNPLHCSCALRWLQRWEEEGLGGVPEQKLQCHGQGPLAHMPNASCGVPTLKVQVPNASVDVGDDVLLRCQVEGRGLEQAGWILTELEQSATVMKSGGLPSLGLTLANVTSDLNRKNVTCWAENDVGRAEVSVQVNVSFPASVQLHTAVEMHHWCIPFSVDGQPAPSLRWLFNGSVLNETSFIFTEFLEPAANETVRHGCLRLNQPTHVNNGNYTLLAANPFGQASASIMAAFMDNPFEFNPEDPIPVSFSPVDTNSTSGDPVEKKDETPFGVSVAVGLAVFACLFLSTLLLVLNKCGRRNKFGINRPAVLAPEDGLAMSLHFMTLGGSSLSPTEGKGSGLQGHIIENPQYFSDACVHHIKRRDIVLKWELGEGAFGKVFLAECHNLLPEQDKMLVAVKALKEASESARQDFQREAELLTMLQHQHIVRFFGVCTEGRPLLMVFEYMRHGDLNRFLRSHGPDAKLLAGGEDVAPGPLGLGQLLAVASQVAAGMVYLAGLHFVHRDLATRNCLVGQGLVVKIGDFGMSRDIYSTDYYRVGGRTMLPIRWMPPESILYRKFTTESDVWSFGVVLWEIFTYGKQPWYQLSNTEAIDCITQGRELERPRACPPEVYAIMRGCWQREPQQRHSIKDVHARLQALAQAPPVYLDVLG
Chain of Homeodomain-interacting protein kinase 1 (Q86Z02 whole entry): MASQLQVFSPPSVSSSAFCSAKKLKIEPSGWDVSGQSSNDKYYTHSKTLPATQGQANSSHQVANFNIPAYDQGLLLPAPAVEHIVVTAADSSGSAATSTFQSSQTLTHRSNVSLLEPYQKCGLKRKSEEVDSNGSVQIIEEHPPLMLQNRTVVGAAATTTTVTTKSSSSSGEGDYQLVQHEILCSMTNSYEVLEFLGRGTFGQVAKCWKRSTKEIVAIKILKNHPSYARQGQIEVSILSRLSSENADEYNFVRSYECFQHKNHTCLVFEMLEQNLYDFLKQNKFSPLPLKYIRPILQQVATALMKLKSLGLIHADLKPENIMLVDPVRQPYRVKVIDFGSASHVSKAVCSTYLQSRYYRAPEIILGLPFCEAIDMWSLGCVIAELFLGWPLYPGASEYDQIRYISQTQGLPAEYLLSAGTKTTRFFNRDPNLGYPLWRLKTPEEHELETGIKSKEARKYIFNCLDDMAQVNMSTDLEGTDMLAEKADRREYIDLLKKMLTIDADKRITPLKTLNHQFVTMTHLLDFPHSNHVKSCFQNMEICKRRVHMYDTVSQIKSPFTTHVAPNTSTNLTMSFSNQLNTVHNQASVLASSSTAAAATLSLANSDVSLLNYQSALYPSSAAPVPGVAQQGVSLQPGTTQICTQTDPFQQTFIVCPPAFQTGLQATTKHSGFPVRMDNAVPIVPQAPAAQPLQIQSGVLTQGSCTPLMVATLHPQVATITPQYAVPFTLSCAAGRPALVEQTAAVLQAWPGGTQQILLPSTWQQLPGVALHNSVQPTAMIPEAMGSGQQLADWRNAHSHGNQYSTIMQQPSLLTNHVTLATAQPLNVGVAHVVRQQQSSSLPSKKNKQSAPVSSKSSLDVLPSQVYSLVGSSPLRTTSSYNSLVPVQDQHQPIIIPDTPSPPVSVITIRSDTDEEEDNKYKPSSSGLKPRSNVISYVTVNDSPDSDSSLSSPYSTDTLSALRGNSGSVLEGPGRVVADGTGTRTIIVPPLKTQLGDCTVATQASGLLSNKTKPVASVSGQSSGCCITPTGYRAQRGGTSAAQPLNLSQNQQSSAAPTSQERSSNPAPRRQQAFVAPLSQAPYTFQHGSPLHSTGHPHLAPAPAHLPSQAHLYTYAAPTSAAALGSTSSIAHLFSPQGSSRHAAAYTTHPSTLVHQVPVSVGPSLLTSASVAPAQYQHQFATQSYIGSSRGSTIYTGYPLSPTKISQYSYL

On to `Cn1cc(C2=C(c3cn(CCCSC(=N)N)c4ccccc34)C(=O)NC2=O)c2ccccc21`, for which 0.367 nM corresponded to half-maximal inhibition in series [1] (IC50).

For `COc1cc(NC(=O)Nc2cnc(Nc3ccc(N4CCOCC4)cc3)nc2Oc2ccc(C)cc2OC)cc(OC)c1`, the IC50 (commonly the concentration that inhibits the measured activity by half) in [2] was 502 nM; in the series on RAW264.7 [3], over 80000 nM; in the series on RAW264.7 [4], over 80000 nM; in [5], 4200 nM; in series [6] it was 8540 nM.

Regarding `COc1cc(/C=N/c2cnc(Nc3ccc(N4CCOCC4)cc3)nc2Oc2ccc(C)cc2OC)cc(OC)c1`, the IC50 in series [2] was 106 nM; in [8] it was 883 nM; with RAW264.7 [4] it was over 1000 nM. Besides, the Activity in [7] fell in the range of 4.38 to 7.22%; in [9], 7.1 to 8.37%; in series [10] it was 10.3 to 12.6%; in [11], 21.3 to 26.9%; in series [12] it was 28.8 to 37.5%. In addition, in [13], the IC80 (in general, the concentration at which the effect reaches the 80% level) at 4 h is over 1000 nM.

For `COc1cc(/C=N/c2cnc(Nc3ccc(N4CCOCC4)cc3)nc2Oc2ccc(F)cc2)cc(OC)c1`, the results for the IC50 in [2] and in series [8] were 3170 nM and 21 nM, respectively. For the same compound, the Activity lay in the range of 65.3 to 69.2% in [7]; 39.9 to 41% in series [9]; 42.7 to 47.8% in series [10]; 62.5 to 64.3% in series [11]; 76.7 to 83.1% in series [12].

For `COc1ccc(Oc2nc(Nc3ccc(N4CCOCC4)cc3)ncc2/N=C/c2cc(OC)cc(OC)c2)cc1`, the IC50 came out at 22 nM in [2], 4.6 nM in [8], 10300 nM in the series with RAW264.7 [4] and 5220 nM with RAW264.7 [15]. For the same compound, the Activity in [7] was 44.8 to 48.5%; in series [9], 27.4 to 28.3%; in [10], 30.3 to 32.9%; in series [11], 37.8 to 39.9%; in [12], 53.2%. In [13], this compound registered an IC80 at 4 h of over 12000 nM. Besides, the “Ratio IC50” value in the series on RAW264.7 [14] is reported as over 2.5. Besides, in the series with RAW264.7 [16], the inhibition entry is “inactive”. Also, the inhibition entry in the series with RAW264.7 [17] is “Active”.

Take `COc1cc(/C=N/c2cnc(Nc3ccc(N4CCOCC4)cc3)nc2Oc2ccc(C(F)(F)F)cc2)cc(OC)c1`: the IC50 worked out at 12100 nM in series [2] and 14 nM in series [8]. In addition, the Activity in series [7] is 49.4 to 59.3%; in series [9], 43.8 to 52.2%; in series [10] it was 58.4 to 60%; in [11] it was 61.8 to 72.5%; in series [12], 83.1 to 91.7%.

`CS(=O)(=O)Nc1ccc([N+](=O)[O-])cc1OC1CCCCC1` [NS-398]: the IC50 in the series with RAW264.7 [15] is 7.23 nM.
